Test results from article doi:10.1101/2025.11.20.689572v1 (biorxiv, 2025).
Like-named read-outs stand apart in the source and are kept apart here.

Assays:
[1] = molecular target: HRH3 (Homo sapiens, UniProt Q9Y5N1); test: cell-based; design: species or system HTLA; PRESTO-Tango beta-arrestin2 recruitment, luciferase luminescence, concentration-response; conditions: Assay=Tango; agonist mode
[2] = molecular target: T1, M4 (Homo sapiens, UniProt P08173); test: TRUPATH BRET2 G protein dissociation, HEK293; type: cell-based; conditions: HBSS, […] HEPES pH […] °C; agonist mode
T1 construct: gene CHRM4; full-length receptor; HEK293 with TRUPATH sensors (function)
T1 sequence (P08173 1-479): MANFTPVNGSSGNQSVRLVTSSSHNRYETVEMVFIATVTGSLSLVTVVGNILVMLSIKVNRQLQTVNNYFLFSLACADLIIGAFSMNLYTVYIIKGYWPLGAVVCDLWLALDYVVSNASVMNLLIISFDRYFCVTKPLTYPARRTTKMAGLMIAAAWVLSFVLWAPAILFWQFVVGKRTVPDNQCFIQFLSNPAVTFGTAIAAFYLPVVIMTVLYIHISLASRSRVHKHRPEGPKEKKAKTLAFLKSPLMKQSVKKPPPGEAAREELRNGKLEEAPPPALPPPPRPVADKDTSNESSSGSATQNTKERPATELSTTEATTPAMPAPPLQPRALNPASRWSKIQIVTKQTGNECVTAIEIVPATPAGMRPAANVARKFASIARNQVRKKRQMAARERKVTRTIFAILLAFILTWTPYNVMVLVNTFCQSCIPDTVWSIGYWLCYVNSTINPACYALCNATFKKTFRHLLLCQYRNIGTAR

[3] = molecular target: T2, H2 (Homo sapiens, UniProt P25021); test: competitive radioligand binding, HEK293 membranes
T2 construct: gene HRH2; full-length receptor; HEK293 cell membranes
T2 sequence (P25021 whole entry): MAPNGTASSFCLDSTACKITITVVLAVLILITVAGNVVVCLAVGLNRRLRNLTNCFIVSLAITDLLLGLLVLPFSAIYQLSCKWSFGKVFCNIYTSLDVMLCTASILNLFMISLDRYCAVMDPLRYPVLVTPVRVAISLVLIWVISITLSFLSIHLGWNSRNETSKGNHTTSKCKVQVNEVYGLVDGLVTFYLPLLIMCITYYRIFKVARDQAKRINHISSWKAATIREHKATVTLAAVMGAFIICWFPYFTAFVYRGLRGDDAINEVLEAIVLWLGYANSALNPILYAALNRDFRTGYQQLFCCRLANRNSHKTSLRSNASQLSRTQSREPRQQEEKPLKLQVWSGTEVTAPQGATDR
Source text: competitive radioligand binding, HEK293 membranes on H2

[4] = molecular target: T3, M5 (Homo sapiens, UniProt P08912); test: TRUPATH BRET2 G protein dissociation, HEK293; type: cell-based; conditions: HBSS, […] HEPES pH […] °C; agonist mode
T3 construct: gene CHRM5; full-length receptor; HEK293 with TRUPATH sensors (function)
T3 sequence (P08912 1-532): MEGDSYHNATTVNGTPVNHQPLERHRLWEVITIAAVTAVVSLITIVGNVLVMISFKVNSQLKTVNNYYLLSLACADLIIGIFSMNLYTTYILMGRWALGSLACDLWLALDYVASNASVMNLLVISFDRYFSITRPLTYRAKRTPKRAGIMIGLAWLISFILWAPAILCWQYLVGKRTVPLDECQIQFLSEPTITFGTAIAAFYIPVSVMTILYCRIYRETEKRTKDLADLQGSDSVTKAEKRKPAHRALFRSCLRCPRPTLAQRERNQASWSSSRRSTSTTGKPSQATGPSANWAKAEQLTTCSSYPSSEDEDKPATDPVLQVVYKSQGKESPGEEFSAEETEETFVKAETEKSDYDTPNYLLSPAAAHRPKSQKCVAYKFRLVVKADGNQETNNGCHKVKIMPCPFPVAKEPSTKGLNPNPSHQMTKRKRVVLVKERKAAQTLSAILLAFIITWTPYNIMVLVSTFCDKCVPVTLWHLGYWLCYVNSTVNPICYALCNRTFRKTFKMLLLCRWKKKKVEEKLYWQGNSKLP

[5] = molecular target: T4, CHRM3 (Homo sapiens, UniProt P20309); test: cell-based; design: species or system HEK293; Fluo-4 Direct calcium mobilization on FLIPR-Tetra; conditions: Assay=Calcium; agonist mode
T4 sequence (P20309 whole entry): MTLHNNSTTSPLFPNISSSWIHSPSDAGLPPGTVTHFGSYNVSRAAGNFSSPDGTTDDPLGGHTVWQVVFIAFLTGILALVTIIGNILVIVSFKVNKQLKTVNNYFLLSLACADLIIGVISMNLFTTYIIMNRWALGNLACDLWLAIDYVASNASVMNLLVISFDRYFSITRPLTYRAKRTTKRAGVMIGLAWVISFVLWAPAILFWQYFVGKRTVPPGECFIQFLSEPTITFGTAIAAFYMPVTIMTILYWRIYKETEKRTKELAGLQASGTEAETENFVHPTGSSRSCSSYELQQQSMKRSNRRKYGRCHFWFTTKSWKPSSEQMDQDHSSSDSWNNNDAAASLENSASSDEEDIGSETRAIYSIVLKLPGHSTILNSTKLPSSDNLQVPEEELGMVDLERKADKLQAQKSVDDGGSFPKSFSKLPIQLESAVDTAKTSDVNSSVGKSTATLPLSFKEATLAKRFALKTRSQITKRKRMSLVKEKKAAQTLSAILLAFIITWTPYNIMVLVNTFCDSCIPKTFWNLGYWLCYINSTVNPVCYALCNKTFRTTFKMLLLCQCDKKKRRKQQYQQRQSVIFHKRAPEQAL

[6] = molecular target: T5, 5-HT2C (Homo sapiens, UniProt P28335); test: competitive radioligand binding, HEK293 membranes
T5 construct: gene HTR2C; full-length receptor; HEK293 cell membranes
T5 sequence (P28335 33-458): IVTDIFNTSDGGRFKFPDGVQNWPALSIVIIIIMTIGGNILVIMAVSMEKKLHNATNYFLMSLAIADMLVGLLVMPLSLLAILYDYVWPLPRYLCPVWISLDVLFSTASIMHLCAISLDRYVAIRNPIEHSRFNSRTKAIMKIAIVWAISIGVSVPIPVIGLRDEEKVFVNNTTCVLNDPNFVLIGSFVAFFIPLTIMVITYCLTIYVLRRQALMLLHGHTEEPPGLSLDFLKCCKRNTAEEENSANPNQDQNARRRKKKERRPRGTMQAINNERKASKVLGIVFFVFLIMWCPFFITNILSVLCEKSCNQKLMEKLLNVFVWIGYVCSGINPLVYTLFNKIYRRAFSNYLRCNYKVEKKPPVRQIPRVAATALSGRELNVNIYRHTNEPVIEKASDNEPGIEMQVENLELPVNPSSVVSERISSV
Source text: competitive radioligand binding, HEK293 membranes on 5-HT2C

[7] = molecular target: T4, CHRM3; test: cell-based; design: species or system HEK293; BRET1 beta-arrestin2 recruitment, receptor-RLuc8 and mVenus-beta-arrestin2 with GRK2; conditions: Assay=barr2, agonist mode, % of control agonist
Source text: (§1) BRET1 assays followed prior methods.

[8] = molecular target: T6, CHRM4 (Homo sapiens, UniProt P08173); test: cell-based; design: species or system HEK293; BRET1 beta-arrestin2 recruitment, receptor-RLuc8 and mVenus-beta-arrestin2 with GRK2; conditions: Assay=barr2, agonist mode, % of control agonist
T6 sequence (P08173 1-479): T1 sequence (P08173 1-479)
Source text: as §1

[9] = molecular target: T7, CHRM5 (Homo sapiens, UniProt P08912); test: cell-based; design: species or system HEK293; BRET1 beta-arrestin2 recruitment, receptor-RLuc8 and mVenus-beta-arrestin2 with GRK2; conditions: Assay=barr2, agonist mode, % of control agonist
T7 sequence (P08912 1-532): T3 sequence (P08912 1-532)
Source text: as §1

[10] = molecular target: T8, CHRM1 (Homo sapiens, UniProt P11229); test: cell-based; design: species or system HEK293; BRET1 beta-arrestin2 recruitment, receptor-RLuc8 and mVenus-beta-arrestin2 with GRK2; conditions: Assay=barr2, agonist mode, % of control agonist
T8 sequence (P11229 1-460): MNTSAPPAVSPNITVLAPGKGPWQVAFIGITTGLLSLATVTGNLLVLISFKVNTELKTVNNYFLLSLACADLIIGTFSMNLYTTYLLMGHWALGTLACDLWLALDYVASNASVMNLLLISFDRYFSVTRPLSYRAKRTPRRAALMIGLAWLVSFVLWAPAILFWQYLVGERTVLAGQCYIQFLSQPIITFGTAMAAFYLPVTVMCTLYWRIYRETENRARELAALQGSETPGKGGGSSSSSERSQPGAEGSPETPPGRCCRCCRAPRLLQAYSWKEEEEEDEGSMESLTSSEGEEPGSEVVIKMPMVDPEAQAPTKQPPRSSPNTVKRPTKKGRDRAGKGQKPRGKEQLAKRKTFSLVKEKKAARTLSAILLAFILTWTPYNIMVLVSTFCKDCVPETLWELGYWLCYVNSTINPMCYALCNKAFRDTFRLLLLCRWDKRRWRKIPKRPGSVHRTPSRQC
Source text: as §1

[11] = molecular target: T9, D3 (Homo sapiens, UniProt P35462); test: competitive radioligand binding, HEK293 membranes
T9 construct: gene DRD3; full-length receptor; HEK293 cell membranes
T9 sequence (P35462 whole entry): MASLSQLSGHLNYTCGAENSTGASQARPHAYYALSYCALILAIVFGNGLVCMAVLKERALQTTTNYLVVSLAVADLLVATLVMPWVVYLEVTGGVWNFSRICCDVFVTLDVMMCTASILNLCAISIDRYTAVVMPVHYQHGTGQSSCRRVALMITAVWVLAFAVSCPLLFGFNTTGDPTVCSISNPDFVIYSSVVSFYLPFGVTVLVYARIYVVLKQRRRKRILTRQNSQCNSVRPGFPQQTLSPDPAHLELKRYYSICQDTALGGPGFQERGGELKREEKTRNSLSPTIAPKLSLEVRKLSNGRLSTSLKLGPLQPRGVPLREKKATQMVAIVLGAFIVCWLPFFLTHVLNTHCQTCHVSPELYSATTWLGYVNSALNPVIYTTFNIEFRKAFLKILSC
Source text: competitive radioligand binding, HEK293 membranes on D3

[12] = molecular target: T10, 5-HT1A (Homo sapiens, UniProt P08908); test: TRUPATH BRET2 G protein dissociation, HEK293; type: cell-based; conditions: HBSS, […] HEPES pH […] °C; agonist mode
T10 construct: gene HTR1A; full-length receptor; HEK293 with TRUPATH sensors
T10 sequence (P08908 whole entry): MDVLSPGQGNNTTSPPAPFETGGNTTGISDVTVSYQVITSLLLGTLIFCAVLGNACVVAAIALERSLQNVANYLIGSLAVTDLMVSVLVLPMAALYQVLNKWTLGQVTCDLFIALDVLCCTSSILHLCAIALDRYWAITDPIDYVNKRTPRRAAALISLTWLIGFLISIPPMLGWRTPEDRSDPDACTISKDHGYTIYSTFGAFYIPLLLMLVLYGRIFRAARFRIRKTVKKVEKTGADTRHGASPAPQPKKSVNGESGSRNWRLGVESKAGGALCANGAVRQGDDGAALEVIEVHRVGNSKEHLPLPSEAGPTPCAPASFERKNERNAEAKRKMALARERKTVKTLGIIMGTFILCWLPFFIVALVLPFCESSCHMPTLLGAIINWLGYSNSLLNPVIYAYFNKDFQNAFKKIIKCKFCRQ

[13] = HEK293, read-out: N-Desmethyl Xanomeline

Chain of HRH3 (Q9Y5N1 whole entry): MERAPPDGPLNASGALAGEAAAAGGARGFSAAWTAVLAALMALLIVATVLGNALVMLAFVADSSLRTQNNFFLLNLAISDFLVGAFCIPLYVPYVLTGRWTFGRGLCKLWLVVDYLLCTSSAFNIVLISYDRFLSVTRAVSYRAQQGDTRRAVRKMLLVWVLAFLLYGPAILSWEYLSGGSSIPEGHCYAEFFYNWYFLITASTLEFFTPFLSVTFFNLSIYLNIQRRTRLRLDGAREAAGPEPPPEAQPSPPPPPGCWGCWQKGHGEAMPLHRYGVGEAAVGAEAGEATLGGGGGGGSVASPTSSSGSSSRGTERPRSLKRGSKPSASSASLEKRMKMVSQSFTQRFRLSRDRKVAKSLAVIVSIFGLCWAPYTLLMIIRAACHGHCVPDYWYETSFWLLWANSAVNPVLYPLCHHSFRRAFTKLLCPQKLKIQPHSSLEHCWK

Row | SMILES | EC50 [1] | EC50 [2] | Ki [3] | EC50 [4] | EC50 [5] | Ki [6] | Emax [7, 13] | Emax [8, 13] | Emax [9, 13] | Emax [10, 13] | Ki [11] | EC50 [12] | Emax ([7]; HEK293, read-out: Xanomeline) | Emax ([8]; HEK293, read-out: Xanomeline) | Emax ([9]; HEK293, read-out: Xanomeline) | Emax ([10]; HEK293, read-out: Xanomeline)
1 | CCCCCCOc1nsnc1C1=CCCNC1 [N-desmethylxanomeline] | 7.58 µM | differential activation of M1-M5 muscarinic receptor transducers | 1.02 µM | differential activation of M1-M5 muscarinic receptor transducers | 0.0641 µM | 0.324 µM | 32.8% | 20.5% | 16.9% | 71.3% | 0.646 µM | full or partial agonists at 5-HT1D and 5-HT1A in a transducer-dependent fashion |  |  |  | 
2 | CCCCCCOc1nsnc1C1=CCCN(C)C1 [Xanomeline] | 9.44 µM | xanomeline being more potent and efficacious than carbachol at M1 and M4 muscarinic receptors | 0.347 µM | differential activation of M1-M5 muscarinic receptor transducers | 0.034 µM | 0.204 µM |  |  |  |  | 0.251 µM | full or partial agonists at 5-HT1D and 5-HT1A in a transducer-dependent fashion | 21.7% | 29.1% | 27.2% | 73.2%
